Tested on: Donor 3 GMA T-Cell Lines
Assay: ATP proliferation assay (CellTiter Glo), Donor 3 GMA T-cell lines, incl. reactivity to non-canonical GA peptides
Type: cell-based, human
Details: for ATP proliferation assay: Day 14

glatiramer acetate [GMA]
ATP proliferation assay (165-E9G, 10 μg/mL, control 17059): 52948 RLU | ATP proliferation assay (165-F2G, 10 μg/mL, control 14734): 44951 RLU | ATP proliferation assay (165-F5G, 10 μg/mL, control 16943): 100677 RLU | ATP proliferation assay (165-F8G, 10 μg/mL, control 17986): 72716 RLU | ATP proliferation assay (165-F10G, 10 μg/mL, control 13314): 42447 RLU | ATP proliferation assay (165-H11G, 10 μg/mL, control 17149): 52850 RLU | Proliferation (luminescent ATP assay), Mean (T-cell line 165-05G, 1 μg/mL antigen, Day 50 of culturing, No Antigen Value 2149): 3999 RLU | Proliferation (luminescent ATP assay), Mean (T-cell line 165-05G, 3 μg/mL antigen, Day 50 of culturing, No Antigen Value 2149): 35643 RLU | Proliferation (luminescent ATP assay), Mean (T-cell line 165-05G, 10 μg/mL antigen, Day 50 of culturing, No Antigen Value 2149): 53130 RLU | Proliferation (luminescent ATP assay), Mean (T-cell line 165-05G, 30 μg/mL antigen, Day 50 of culturing, No Antigen Value 2149): 55596 RLU | Mean, ATP proliferation assay (T-cell line 165-B2G, 1 μg/mL, Day 40): 4034 | Mean, ATP proliferation assay (T-cell line 165-B2G, 3 μg/mL, Day 40): 20994 | Mean, ATP proliferation assay (T-cell line 165-B2G, 10 μg/mL, Day 40): 38244 | Mean, ATP proliferation assay (T-cell line 165-B5G, 1 μg/mL, Day 40): 3866 | Proliferation (luminescent ATP assay), Mean (T-cell line 165-B5G, 1.25 μg/mL antigen, Day 55 of culturing, No Antigen Value 846): 1406 RLU | Proliferation (luminescent ATP assay), Mean (T-cell line 165-B5G, 2.5 μg/mL antigen, Day 55 of culturing, No Antigen Value 846): 2537 RLU | Mean, ATP proliferation assay (T-cell line 165-B5G, 3 μg/mL, Day 40): 6591 | Proliferation (luminescent ATP assay), Mean (T-cell line 165-B5G, 5 μg/mL antigen, Day 55 of culturing, No Antigen Value 846): 5205 RLU | Proliferation (luminescent ATP assay), Mean (T-cell line 165-B5G, 10 μg/mL antigen, Day 55 of culturing, No Antigen Value 846): 11364 RLU | Mean, ATP proliferation assay (T-cell line 165-B5G, 10 μg/mL, Day 40): 12367 | Mean, ATP proliferation assay (T-cell line 165-C4G, 1 μg/mL, Day 40): 3434 | Mean, ATP proliferation assay (T-cell line 165-C4G, 3 μg/mL, Day 40): 6312 | Mean, ATP proliferation assay (T-cell line 165-C4G, 10 μg/mL, Day 40): 19169 | Mean, ATP proliferation assay (T-cell line 165-C5G, 1 μg/mL, Day 40): 12236 | Proliferation (luminescent ATP assay), Mean (T-cell line 165-C5G, 1.25 μg/mL antigen, autologous B-LCL): 2511 RLU | Proliferation (luminescent ATP assay), Mean (T-cell line 165-C5G, 2.5 μg/mL antigen, autologous B-LCL): 26253 RLU | Mean, ATP proliferation assay (T-cell line 165-C5G, 3 μg/mL, Day 40): 36288 | Proliferation (luminescent ATP assay), Mean (T-cell line 165-C5G, 5 μg/mL antigen, autologous B-LCL): 67559 RLU | Proliferation (luminescent ATP assay), Mean (T-cell line 165-C5G, 10 μg/mL antigen, autologous B-LCL): 74630 RLU | Mean, ATP proliferation assay (T-cell line 165-C5G, 10 μg/mL, Day 40): 45444 | Mean, ATP proliferation assay (T-cell line 165-C8G, 1 μg/mL, tested with the Donor 3 COP lines of Table 25): 5605 RLU | Mean, ATP proliferation assay (T-cell line 165-C8G, 3 μg/mL, tested with the Donor 3 COP lines of Table 25): 5002 RLU | Mean, ATP proliferation assay (T-cell line 165-C8G, 10 μg/mL, tested with the Donor 3 COP lines of Table 25): 30200 RLU | Mean, ATP proliferation assay (T-cell line 165-D8G, 1 μg/mL, Day 40): 9427 | Mean, ATP proliferation assay (T-cell line 165-D8G, 3 μg/mL, Day 40): 12644 | Mean, ATP proliferation assay (T-cell line 165-D8G, 10 μg/mL, Day 40): 31264 | Mean, ATP proliferation assay (T-cell line 165-E7G, 1 μg/mL, Day 40): 2569 | Proliferation (luminescent ATP assay), Mean (T-cell line 165-E7G, 1.25 μg/mL antigen, autologous B-LCL, Day 55): 8875 RLU | Proliferation (luminescent ATP assay), Mean (T-cell line 165-E7G, 2.5 μg/mL antigen, autologous B-LCL, Day 55): 10248 RLU | Mean, ATP proliferation assay (T-cell line 165-E7G, 3 μg/mL, Day 40): 6610 | Proliferation (luminescent ATP assay), Mean (T-cell line 165-E7G, 5 μg/mL antigen, autologous B-LCL, Day 55): 26934 RLU | Proliferation (luminescent ATP assay), Mean (T-cell line 165-E7G, 10 μg/mL antigen, autologous B-LCL, Day 55): 30721 RLU | Mean, ATP proliferation assay (T-cell line 165-E7G, 10 μg/mL, Day 40): 14279 | Proliferation (luminescent ATP assay), Mean (T-cell line 165-E9G, 1 μg/mL antigen, Day 50 of culturing, No Antigen Value 1742): 1889 RLU | Mean, ATP proliferation assay (T-cell line 165-E9G, 1 μg/mL, Day 40): 2961 | Proliferation (luminescent ATP assay), Mean (T-cell line 165-E9G, 1.25 μg/mL antigen, autologous B-LCL): 253 RLU | Proliferation (luminescent ATP assay), Mean (T-cell line 165-E9G, 2.5 μg/mL antigen, autologous B-LCL): 1647 RLU | Proliferation (luminescent ATP assay), Mean (T-cell line 165-E9G, 3 μg/mL antigen, Day 50 of culturing, No Antigen Value 1742): 5974 RLU | Mean, ATP proliferation assay (T-cell line 165-E9G, 3 μg/mL, Day 40): 7837 | Proliferation (luminescent ATP assay), Mean (T-cell line 165-E9G, 5 μg/mL antigen, autologous B-LCL): 12964 RLU | Proliferation (luminescent ATP assay), Mean (T-cell line 165-E9G, 10 μg/mL antigen, autologous B-LCL): 13809 RLU | Mean, ATP proliferation assay (T-cell line 165-E9G, 10 μg/mL, Day 40): 24935 | Proliferation (luminescent ATP assay), Mean (T-cell line 165-E9G, 30 μg/mL antigen, Day 50 of culturing, No Antigen Value 1742): 39472 RLU | Proliferation (luminescent ATP assay), Mean (T-cell line 165-E9G, 10 μpg/mL antigen, Day 50 of culturing, No Antigen Value 1742): 37352 RLU | Mean, ATP proliferation assay (T-cell line 165-F2G, 1 μg/mL, Day 40): 1753 | Mean, ATP proliferation assay (T-cell line 165-F2G, 3 μg/mL, Day 40): 1422 | Mean, ATP proliferation assay (T-cell line 165-F2G, 10 μg/mL, Day 40): 1502 | Mean, ATP proliferation assay (T-cell line 165-F5G, 1 μg/mL, Day 40): 5669 | Proliferation (luminescent ATP assay), Mean (T-cell line 165-F5G, 1.25 μg/mL antigen, autologous B-LCL): 1071 RLU | Proliferation (luminescent ATP assay), Mean (T-cell line 165-F5G, 2.5 μg/mL antigen, autologous B-LCL): 19012 RLU | Mean, ATP proliferation assay (T-cell line 165-F5G, 3 μg/mL, Day 40): 14024 | Proliferation (luminescent ATP assay), Mean (T-cell line 165-F5G, 5 μg/mL antigen, autologous B-LCL): 45384 RLU | Proliferation (luminescent ATP assay), Mean (T-cell line 165-F5G, 10 μg/mL antigen, autologous B-LCL): 48029 RLU | Mean, ATP proliferation assay (T-cell line 165-F5G, 10 μg/mL, Day 40): 23774 | Mean, ATP proliferation assay (T-cell line 165-F8G, 1 μg/mL, Day 40): 4804 | Mean, ATP proliferation assay (T-cell line 165-F8G, 3 μg/mL, Day 40): 6841 | Mean, ATP proliferation assay (T-cell line 165-F8G, 10 μg/mL, Day 40): 11880 | Proliferation (luminescent ATP assay), Mean (T-cell line 165-F10G, 1 μg/mL antigen, Day 50 of culturing, No Antigen Value 3752): 4734 RLU | Mean, ATP proliferation assay (T-cell line 165-F10G, 1 μg/mL, Day 40): 6015 | Proliferation (luminescent ATP assay), Mean (T-cell line 165-F10G, 1.25 μg/mL antigen, autologous B-LCL): 5731 RLU | Proliferation (luminescent ATP assay), Mean (T-cell line 165-F10G, 2.5 μg/mL antigen, autologous B-LCL): 38905 RLU | Proliferation (luminescent ATP assay), Mean (T-cell line 165-F10G, 3 μg/mL antigen, Day 50 of culturing, No Antigen Value 3752): 35371 RLU | Mean, ATP proliferation assay (T-cell line 165-F10G, 3 μg/mL, Day 40): 17900 | Proliferation (luminescent ATP assay), Mean (T-cell line 165-F10G, 5 μg/mL antigen, autologous B-LCL): 66355 RLU | Proliferation (luminescent ATP assay), Mean (T-cell line 165-F10G, 10 μg/mL antigen, Day 50 of culturing, No Antigen Value 3752): 58913 RLU | Proliferation (luminescent ATP assay), Mean (T-cell line 165-F10G, 10 μg/mL antigen, autologous B-LCL): 57329 RLU | Mean, ATP proliferation assay (T-cell line 165-F10G, 10 μg/mL, Day 40): 30198 | Proliferation (luminescent ATP assay), Mean (T-cell line 165-F10G, 30 μg/mL antigen, Day 50 of culturing, No Antigen Value 3752): 59173 RLU | Proliferation (luminescent ATP assay), Mean (T-cell line 165-H11G, 1 μg/mL antigen, Day 50 of culturing, No Antigen Value 1485): 9569 RLU | Mean, ATP proliferation assay (T-cell line 165-H11G, 1 μg/mL, Day 40): 10205 | Proliferation (luminescent ATP assay), Mean (T-cell line 165-H11G, 1.25 μg/mL antigen, autologous B-LCL): 8 RLU | Proliferation (luminescent ATP assay), Mean (T-cell line 165-H11G, 2.5 μg/mL antigen, autologous B-LCL): 33793 RLU | Proliferation (luminescent ATP assay), Mean (T-cell line 165-H11G, 3 μg/mL antigen, Day 50 of culturing, No Antigen Value 1485): 46539 RLU | Mean, ATP proliferation assay (T-cell line 165-H11G, 3 μg/mL, Day 40): 27515 | Proliferation (luminescent ATP assay), Mean (T-cell line 165-H11G, 5 μg/mL antigen, autologous B-LCL): 70949 RLU | Proliferation (luminescent ATP assay), Mean (T-cell line 165-H11G, 10 μg/mL antigen, Day 50 of culturing, No Antigen Value 1485): 49104 RLU | Proliferation (luminescent ATP assay), Mean (T-cell line 165-H11G, 10 μg/mL antigen, autologous B-LCL): 72728 RLU | Mean, ATP proliferation assay (T-cell line 165-H11G, 10 μg/mL, Day 40): 44067 | Proliferation (luminescent ATP assay), Mean (T-cell line 165-H11G, 30 μg/mL antigen, Day 50 of culturing, No Antigen Value 1485): 32179 RLU | responsiveness in proliferation assay (all 8 Donor 3 GMA cell lines tested, Day 32, 10 μg/mL (Table 19)): responsive | responsiveness in proliferation assay (eleven of the 12 cell lines (all but F2G), Day 40, 1, 3 or 10 μg/mL (Table 21)): responsive
